Results taken from ChEMBL document CHEMBL3808348, “Rational Design, Synthesis, and Biological Evaluation of 7-Azaindole Derivatives as Potent Focused Multi-Targeted Kinase Inhibitors” (J Med Chem, 2016).

Key:
[1] = biological target: Fibroblast growth factor receptor 2 (Homo sapiens) (UniProt P21802); experiment: Inhibition of His-tagged human recombinant FGFR2 (403 to 822 residues) expressed in baculovirus using Fluorescein-Poly GT as substrate at 100 nM
[2] = biological target: Tyrosine-protein kinase ITK/TSK (Homo sapiens) (UniProt Q08881); conditions: 100 nM
Description: Inhibition of GST-tagged full length human recombinant ITK expressed in baculovirus using Fluorescein-Poly GT as substrate at 100 nM

[3] = Antiangiogenic activity in HRMEC after 72 hrs by MTT assay; format: functional, Homo sapiens
[4] = biological target: Ephrin type-A receptor 1 (Homo sapiens) (UniProt P21709); conditions: 100 nM
Description: Inhibition of GST-tagged human recombinant EPHA1 (568 to 976 residues) expressed in baculovirus using Fluorescein-Poly GT as substrate at 100 nM

[5] = biological target: T1, Platelet-derived growth factor receptor alpha (Homo sapiens, UniProt P16234); experiment: Inhibition of full length GST-tagged human recombinant PDGFRalpha expressed in baculovirus using Fluorescein-Poly GT as substrate
T1 sequence (P16234 whole entry): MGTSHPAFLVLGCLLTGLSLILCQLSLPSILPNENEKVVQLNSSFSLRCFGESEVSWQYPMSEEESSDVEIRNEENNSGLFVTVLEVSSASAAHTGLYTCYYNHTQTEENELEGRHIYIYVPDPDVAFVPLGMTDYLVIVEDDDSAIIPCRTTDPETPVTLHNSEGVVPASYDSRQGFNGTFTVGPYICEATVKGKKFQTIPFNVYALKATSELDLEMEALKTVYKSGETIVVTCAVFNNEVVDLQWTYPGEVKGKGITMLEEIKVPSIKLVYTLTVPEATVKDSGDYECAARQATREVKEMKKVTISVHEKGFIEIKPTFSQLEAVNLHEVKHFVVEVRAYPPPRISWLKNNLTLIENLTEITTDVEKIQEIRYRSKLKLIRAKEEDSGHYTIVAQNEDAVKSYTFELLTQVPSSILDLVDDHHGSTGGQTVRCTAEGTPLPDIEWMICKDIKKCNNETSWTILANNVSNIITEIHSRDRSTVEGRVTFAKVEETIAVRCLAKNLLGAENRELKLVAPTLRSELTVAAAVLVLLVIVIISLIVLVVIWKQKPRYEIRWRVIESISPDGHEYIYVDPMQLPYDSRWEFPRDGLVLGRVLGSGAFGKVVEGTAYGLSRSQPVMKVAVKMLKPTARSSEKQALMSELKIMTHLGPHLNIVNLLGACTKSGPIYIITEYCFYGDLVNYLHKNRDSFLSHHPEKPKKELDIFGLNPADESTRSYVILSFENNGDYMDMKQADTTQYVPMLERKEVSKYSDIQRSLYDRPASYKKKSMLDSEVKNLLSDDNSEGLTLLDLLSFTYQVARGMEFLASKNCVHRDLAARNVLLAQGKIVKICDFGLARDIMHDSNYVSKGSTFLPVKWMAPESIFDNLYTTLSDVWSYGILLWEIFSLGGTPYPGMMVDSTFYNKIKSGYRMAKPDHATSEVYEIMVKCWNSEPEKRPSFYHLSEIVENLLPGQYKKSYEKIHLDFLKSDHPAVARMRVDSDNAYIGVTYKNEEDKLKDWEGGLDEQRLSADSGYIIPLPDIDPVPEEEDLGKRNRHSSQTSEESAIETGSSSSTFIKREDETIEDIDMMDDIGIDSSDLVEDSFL

[6] = biological target: Vascular endothelial growth factor receptor 2 (Homo sapiens) (UniProt P35968); conditions: 100 nM
Description: Inhibition of His-tagged human recombinant VEGFR2 (789 to 1356 residues) expressed in baculovirus using Fluorescein-Poly GT as substrate at 100 nM

[7] = biological target: Insulin receptor-related protein (Homo sapiens) (UniProt P14616); conditions: 100 nM
Description: Inhibition of GST-tagged human recombinant INSRR (944 to 1297 residues) expressed in baculovirus using Fluorescein-Poly GT as substrate at 100 nM

[8] = biological target: Myotonin-protein kinase (Homo sapiens) (UniProt Q09013); conditions: 100 nM
Description: Inhibition of full length GST-tagged human recombinant DMPK expressed in baculovirus expression system at 100 nM

[9] = biological target: Ephrin type-A receptor 2 (Homo sapiens) (UniProt P29317); conditions: 100 nM
Description: Inhibition of GST-tagged human recombinant EPHA2 (560 to 976 residues) expressed in baculovirus using Fluorescein-Poly GT as substrate at 100 nM

[10] = biological target: T2, Tyrosine-protein kinase HCK (Homo sapiens, UniProt P08631); experiment: Inhibition of GST-tagged full length human recombinant HCK expressed in baculovirus using Fluorescein-Poly GT as substrate
[11] = biological target: Tyrosine-protein kinase BTK (Homo sapiens) (UniProt Q06187); conditions: 100 nM
Tyrosine-protein kinase BTK (Homo sapiens), sequence (Q06187 whole entry): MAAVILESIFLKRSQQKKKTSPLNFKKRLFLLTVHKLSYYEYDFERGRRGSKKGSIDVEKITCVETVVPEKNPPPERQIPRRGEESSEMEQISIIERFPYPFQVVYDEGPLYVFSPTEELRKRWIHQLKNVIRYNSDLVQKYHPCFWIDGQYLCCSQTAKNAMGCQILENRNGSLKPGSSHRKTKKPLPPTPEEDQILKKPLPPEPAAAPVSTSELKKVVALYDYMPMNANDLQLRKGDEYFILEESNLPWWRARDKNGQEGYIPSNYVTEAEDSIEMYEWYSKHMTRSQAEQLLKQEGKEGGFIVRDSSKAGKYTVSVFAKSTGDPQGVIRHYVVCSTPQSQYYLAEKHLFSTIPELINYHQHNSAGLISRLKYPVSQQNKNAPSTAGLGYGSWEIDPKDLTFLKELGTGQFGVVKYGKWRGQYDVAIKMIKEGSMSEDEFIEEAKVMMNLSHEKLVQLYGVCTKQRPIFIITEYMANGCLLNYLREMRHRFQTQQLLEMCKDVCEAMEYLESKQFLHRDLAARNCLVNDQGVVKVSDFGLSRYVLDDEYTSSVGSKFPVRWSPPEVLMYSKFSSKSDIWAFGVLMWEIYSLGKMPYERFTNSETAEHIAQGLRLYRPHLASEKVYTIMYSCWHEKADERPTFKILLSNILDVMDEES
Description: Inhibition of His-tagged full length human recombinant BTK expressed in baculovirus using Fluorescein-Poly GT as substrate at 100 nM

[12] = system: Tyrosine-protein kinase ABL1 (Homo sapiens), P00519 [E255K]; experiment: Inhibition of His-tagged full length human recombinant ABL E255K mutant expressed in baculovirus using Fluorescein-Poly GT as substrate at 100 nM
[13] = biological target: CDK7/Cyclin H/MNAT1 (Homo sapiens) (UniProt P51946+P50613+P51948); conditions: 100 nM
Description: Inhibition of CDK7/cyclinH/MNAT1 (unknown origin) at 100 nM

[14] = biological target: Aurora kinase A (Homo sapiens) (UniProt O14965); conditions: 100 nM
Description: Inhibition of full length His-tagged human recombinant Aurora A expressed in baculovirus using Fluorescein-CREBtide as substrate at 100 nM

[15] = biological target: Mast/stem cell growth factor receptor Kit (Homo sapiens) (UniProt P10721); conditions: 100 nM
Description: Inhibition of His-tagged human recombinant cKIT expressed in baculovirus using Fluorescein-Poly GT as substrate at 100 nM

[16] = biological target: Tyrosine-protein kinase Mer (Homo sapiens) (UniProt Q12866); conditions: 100 nM
Description: Inhibition of GST-tagged human recombinant cMER expressed in baculovirus using Fluorescein-Poly GT as substrate at 100 nM

[17] = biological target: Inhibitor of nuclear factor kappa-B kinase subunit beta (Homo sapiens) (UniProt O14920); conditions: 100 nM
Description: Inhibition of GST-tagged full length human recombinant IKKbeta expressed in baculovirus using Fluorescein-Poly GT as substrate at 100 nM

[18] = biological target: Tyrosine-protein kinase Yes (Homo sapiens, UniProt P07947); experiment: Inhibition of GST-tagged full length human recombinant YES expressed in baculovirus using Fluorescein-Poly GT as substrate at 100 nM
[19] = biological target: Insulin-like growth factor 1 receptor (Homo sapiens) (UniProt P08069); conditions: 100 nM
Description: Inhibition of His-tagged human recombinant IGF1R (960 to 1397 residues) expressed in baculovirus using Fluorescein-Poly GT as substrate at 100 nM

[20] = Antiproliferative activity against human BxPC3 cells after 72 hrs by MTT assay; format: functional, cell-based; conditions: BXPC-3, 72 h
[21] = biological target: T3, Epidermal growth factor receptor (Homo sapiens, UniProt P00533); experiment: Inhibition of GST-tagged human recombinant EGFR (668 to1210 residues) expressed in baculovirus using Fluorescein-Poly GT as substrate at 100 nM
T3 sequence (P00533 whole entry, the tested form may be a part): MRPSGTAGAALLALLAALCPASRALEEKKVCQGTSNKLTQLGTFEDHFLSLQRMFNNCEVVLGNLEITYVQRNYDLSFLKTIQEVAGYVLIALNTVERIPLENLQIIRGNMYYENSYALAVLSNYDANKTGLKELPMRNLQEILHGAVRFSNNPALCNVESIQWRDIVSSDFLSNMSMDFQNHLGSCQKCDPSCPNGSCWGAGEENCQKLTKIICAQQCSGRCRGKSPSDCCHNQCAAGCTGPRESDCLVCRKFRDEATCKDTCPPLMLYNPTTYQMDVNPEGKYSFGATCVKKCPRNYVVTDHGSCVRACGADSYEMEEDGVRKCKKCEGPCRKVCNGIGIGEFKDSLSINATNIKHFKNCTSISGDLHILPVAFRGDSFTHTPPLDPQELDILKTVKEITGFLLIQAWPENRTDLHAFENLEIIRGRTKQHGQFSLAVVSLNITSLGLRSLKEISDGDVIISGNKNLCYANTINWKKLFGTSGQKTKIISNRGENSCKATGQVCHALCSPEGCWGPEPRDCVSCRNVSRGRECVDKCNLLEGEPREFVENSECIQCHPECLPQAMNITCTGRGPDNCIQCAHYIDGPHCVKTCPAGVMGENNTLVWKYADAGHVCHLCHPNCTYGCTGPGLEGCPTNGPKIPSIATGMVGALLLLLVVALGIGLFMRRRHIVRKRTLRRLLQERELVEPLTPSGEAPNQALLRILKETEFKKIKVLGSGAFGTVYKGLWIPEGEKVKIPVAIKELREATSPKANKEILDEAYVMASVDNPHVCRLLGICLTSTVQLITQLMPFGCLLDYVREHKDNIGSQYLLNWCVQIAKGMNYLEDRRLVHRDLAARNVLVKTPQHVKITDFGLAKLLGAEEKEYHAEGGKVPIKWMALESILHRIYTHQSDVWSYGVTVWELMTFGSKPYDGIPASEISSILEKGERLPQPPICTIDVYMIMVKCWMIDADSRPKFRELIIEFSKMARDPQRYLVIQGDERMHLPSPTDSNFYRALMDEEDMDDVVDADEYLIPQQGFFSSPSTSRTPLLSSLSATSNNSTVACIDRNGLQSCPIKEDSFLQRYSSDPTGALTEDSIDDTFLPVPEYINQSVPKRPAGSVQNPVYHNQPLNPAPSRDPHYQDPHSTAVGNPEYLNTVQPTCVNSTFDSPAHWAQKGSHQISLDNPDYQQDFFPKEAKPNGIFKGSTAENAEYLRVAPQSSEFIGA

[22] = biological target: Tyrosine-protein kinase Lyn (Homo sapiens, UniProt P07948); experiment: Inhibition of GST-tagged full length human recombinant LYNA expressed in baculovirus using Fluorescein-Poly GT as substrate
Tyrosine-protein kinase Lyn, sequence (P07948 whole entry): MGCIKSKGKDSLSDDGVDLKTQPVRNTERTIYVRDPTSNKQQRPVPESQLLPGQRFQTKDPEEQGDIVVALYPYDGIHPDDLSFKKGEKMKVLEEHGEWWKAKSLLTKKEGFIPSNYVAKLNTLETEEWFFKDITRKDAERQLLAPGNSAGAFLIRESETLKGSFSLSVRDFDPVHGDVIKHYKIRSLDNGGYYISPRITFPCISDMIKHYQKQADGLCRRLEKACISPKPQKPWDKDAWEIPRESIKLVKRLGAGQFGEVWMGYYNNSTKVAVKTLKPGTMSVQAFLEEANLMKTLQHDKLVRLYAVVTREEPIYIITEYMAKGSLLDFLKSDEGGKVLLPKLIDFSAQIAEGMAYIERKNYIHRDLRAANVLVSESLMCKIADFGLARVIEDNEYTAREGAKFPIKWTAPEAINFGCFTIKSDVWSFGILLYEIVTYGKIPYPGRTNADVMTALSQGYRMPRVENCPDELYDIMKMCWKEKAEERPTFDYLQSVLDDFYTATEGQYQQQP

[23] = system: Tyrosine-protein kinase ABL1 (Homo sapiens), P00519 [T315I]; conditions: 100 nM
Description: Inhibition of His-tagged full length human recombinant ABL1 T315I mutant expressed in baculovirus using Fluorescein-Poly GT as substrate at 100 nM

[24] = biological target: Serine/threonine-protein kinase pim-1 (Homo sapiens) (UniProt P11309); conditions: 100 nM
Serine/threonine-protein kinase pim-1 (Homo sapiens), sequence (P11309 whole entry, looked up): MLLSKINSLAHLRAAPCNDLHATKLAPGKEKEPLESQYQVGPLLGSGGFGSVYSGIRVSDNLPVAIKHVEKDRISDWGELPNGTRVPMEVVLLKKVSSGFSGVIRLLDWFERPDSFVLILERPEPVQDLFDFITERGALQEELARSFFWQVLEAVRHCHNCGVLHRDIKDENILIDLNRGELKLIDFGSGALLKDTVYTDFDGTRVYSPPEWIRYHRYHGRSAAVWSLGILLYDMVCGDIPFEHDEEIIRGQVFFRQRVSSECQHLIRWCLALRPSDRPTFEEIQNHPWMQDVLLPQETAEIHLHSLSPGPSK
Description: Inhibition of His-tagged full length human recombinant PIM1 expressed in baculovirus using Fluorescein-CREBtide as substrate at 100 nM

[25] = biological target: Tyrosine-protein kinase receptor TYRO3 (Homo sapiens) (UniProt Q06418); conditions: 100 nM
Description: Inhibition of GST-tagged human recombinant TYRO3 (451 to 890 residues) expressed in baculovirus using Fluorescein-Poly GT as substrate at 100 nM

[26] = biological target: Protein kinase C epsilon type (Homo sapiens) (UniProt Q02156); conditions: 100 nM
Protein kinase C epsilon type (Homo sapiens), sequence (Q02156 whole entry, the tested form may be a part): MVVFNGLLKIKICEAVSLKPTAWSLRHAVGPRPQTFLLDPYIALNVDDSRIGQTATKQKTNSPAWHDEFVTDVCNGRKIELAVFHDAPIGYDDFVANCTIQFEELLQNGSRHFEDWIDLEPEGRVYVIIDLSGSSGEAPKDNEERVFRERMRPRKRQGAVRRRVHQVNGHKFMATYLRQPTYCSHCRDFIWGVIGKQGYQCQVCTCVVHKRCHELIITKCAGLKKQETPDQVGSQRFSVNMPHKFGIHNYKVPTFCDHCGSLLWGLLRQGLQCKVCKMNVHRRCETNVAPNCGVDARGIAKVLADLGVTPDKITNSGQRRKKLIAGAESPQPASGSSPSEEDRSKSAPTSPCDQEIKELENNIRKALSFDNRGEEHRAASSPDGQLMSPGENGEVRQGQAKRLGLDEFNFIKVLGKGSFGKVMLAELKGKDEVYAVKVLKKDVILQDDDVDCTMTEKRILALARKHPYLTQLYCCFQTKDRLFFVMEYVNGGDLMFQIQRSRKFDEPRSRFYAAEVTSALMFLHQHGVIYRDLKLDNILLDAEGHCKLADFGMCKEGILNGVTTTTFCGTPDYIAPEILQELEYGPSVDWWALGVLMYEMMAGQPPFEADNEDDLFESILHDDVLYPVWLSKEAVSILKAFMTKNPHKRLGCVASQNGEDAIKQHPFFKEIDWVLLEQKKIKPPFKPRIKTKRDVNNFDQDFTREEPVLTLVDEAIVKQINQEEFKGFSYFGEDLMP
Description: Inhibition of full length human recombinant PKCepsilon expressed in baculovirus using Fluorescein-PKC as substrate at 100 nM

[27] = biological target: Epidermal growth factor receptor (Homo sapiens, UniProt P00533, T790M); experiment: Inhibition of GST-tagged human recombinant EGFR T790M mutant (668 to 1210 residues) expressed in baculovirus using Fluorescein-Poly GT as substrate
[28] = biological target: cAMP-dependent protein kinase catalytic subunit alpha (Homo sapiens) (UniProt P17612); conditions: 100 nM
Description: Inhibition of His-tagged human recombinant PKA C-alpha (1 to 351 residues) expressed in Escherichia coli using Fluorescein-Crosstide as substrate at 100 nM

[29] = biological target: Cytoplasmic tyrosine-protein kinase BMX (Homo sapiens) (UniProt P51813); experiment: Inhibition of His-tagged full length human recombinant BMX expressed in baculovirus using Fluorescein-Poly GT as substrate at 100 nM
[30] = biological target: Receptor tyrosine-protein kinase erbB-4 (Homo sapiens) (UniProt Q15303); conditions: 100 nM
Description: Inhibition of GST-tagged human recombinant ERBB4 (708 to 993 residues) expressed in baculovirus using Fluorescein-Poly GT as substrate at 100 nM

[31] = biological target: Receptor tyrosine-protein kinase erbB-2 (Homo sapiens) (UniProt P04626); conditions: 100 nM
Description: Inhibition of His-tagged human recombinant ERBB2 (676 to 1225 residues) expressed in baculovirus using Fluorescein-Poly GT as substrate at 100 nM

[32] = biological target: CDK2/Cyclin A2 (Homo sapiens) (UniProt P24941+P20248); conditions: 100 nM
Description: Inhibition of CDK2/cyclinA (unknown origin) at 100 nM

[33] = biological target: T2, Tyrosine-protein kinase HCK; experiment: Inhibition of GST-tagged full length human recombinant HCK expressed in baculovirus using Fluorescein-Poly GT as substrate at 100 nM
Target sequence in this assay (P08631 2-526 limits assumed): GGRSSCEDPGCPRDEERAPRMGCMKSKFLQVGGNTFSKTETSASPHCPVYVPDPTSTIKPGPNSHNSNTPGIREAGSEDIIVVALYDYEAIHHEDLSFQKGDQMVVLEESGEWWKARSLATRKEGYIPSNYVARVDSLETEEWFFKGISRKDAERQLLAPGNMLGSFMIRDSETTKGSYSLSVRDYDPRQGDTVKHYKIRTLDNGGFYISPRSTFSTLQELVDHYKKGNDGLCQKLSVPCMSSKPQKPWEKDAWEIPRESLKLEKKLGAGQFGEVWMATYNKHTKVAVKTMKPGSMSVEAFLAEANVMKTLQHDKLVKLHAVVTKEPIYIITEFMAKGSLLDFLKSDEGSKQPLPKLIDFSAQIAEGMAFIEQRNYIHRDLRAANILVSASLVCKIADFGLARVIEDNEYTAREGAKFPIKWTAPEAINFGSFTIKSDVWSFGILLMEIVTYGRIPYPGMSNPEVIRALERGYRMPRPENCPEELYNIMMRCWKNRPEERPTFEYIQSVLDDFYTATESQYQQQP

[34] = biological target: T1, Platelet-derived growth factor receptor alpha; experiment: Inhibition of full length GST-tagged human recombinant PDGFRalpha expressed in baculovirus using Fluorescein-Poly GT as substrate at 100 nM
[35] = biological target: T3, Epidermal growth factor receptor; experiment: Inhibition of GST-tagged human recombinant EGFR (668 to1210 residues) expressed in baculovirus using Fluorescein-Poly GT as substrate
[36] = biological target: Tyrosine-protein kinase Blk (Homo sapiens) (UniProt P51451); experiment: Inhibition of His-tagged full length human recombinant BLK expressed in baculovirus using Fluorescein-Poly GT as substrate at 100 nM
[37] = biological target: Ribosomal protein S6 kinase beta-1 (Homo sapiens) (UniProt P23443); conditions: 100 nM
Description: Inhibition of GST-tagged human recombinant p70S6K (1 to 421 residues) expressed in baculovirus using Fluorescein-Crosstide as substrate at 100 nM

Homo sapiens = organism: Homo sapiens; conditions: 100 nM
Description: Inhibition of CK1 (unknown origin) at 100 nM

[38] = biological target: RAC-beta serine/threonine-protein kinase (Homo sapiens) (UniProt P31751); conditions: 100 nM
Description: Inhibition of full length His-tagged human recombinant AKT2 expressed in baculovirus using Fluorescein-Crosstide as substrate at 100 nM

[39] = Oral bioavailability in Swiss mouse plasma at 20 mg/kg by LC/MS/MS analysis; format: ADME, organism-based
[40] = biological target: Proto-oncogene tyrosine-protein kinase Src (Homo sapiens, UniProt P12931); experiment: Inhibition of full length His-tagged human recombinant cSRC expressed in baculovirus using Fluorescein-Poly GT as substrate at 100 nM
[41] = biological target: Protein kinase C alpha type (Homo sapiens) (UniProt P17252); conditions: 100 nM
Description: Inhibition of full length human recombinant PKCalpha expressed in baculovirus using Fluorescein-PKC as substrate at 100 nM

COC(=O)c1cc2cc(NCc3cc(NC(=O)c4cc(-n5cnc(C)c5)cc(C(F)(F)F)c4)ccc3C)cnc2[nH]1
62 nM: EC50 [3]
68%: inhibition [34]
82%: inhibition [21]
35 nM: EC50 [20]
22 nM: IC50 [10]
15 nM: IC50 [35]
47%: bioavailability [39]
37 nM: IC50 [22]
50 nM: IC50 [5]
112 nM: IC50 [27]
52%: inhibition [1]
49%: inhibition [40]
> 80%: inhibition [12] | inhibition [18] | inhibition [29] | inhibition [33] | inhibition [36]
< 40%: inhibition [2] | inhibition [4] | inhibition [6] | inhibition [7] | inhibition [8] | inhibition [9] | inhibition [11] | inhibition [13] | inhibition [14] | inhibition [15] | inhibition [16] | inhibition [17] | inhibition [19] | inhibition [23] | inhibition [24] | inhibition [25] | inhibition [26] | inhibition [28] | inhibition [30] | inhibition [31] | inhibition [32] | inhibition [37] | inhibition (Homo sapiens) | inhibition [38] | inhibition [41]
